In PMC5695812, “Novel chloroacetamido compound CWR-J02 is an anti-inflammatory glutaredoxin-1 inhibitor” (PLoS ONE, 2017):

Experiments:
Cys22 = Cys22 (UniProt position 23, FIKPTCPYCRR); conditions: cited from earlier work
glutaredoxin-1 (Grx1) [1] = biological target: T1, glutaredoxin-1 (Grx1) (Homo sapiens, UniProt P35754); assay: isolated enzyme spectrophotometric assay ([…] min pre-incubation, […] GSH); Kitz-Wilson kinetics; tandem MS of the Cys-22 adduct; assay type: biochemical
T1 construct: gene GLRX
T1 sequence (P35754 2-106): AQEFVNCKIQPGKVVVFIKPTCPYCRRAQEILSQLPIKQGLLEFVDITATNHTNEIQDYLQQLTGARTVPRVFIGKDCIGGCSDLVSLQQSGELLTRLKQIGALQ

glutaredoxin-1 (Grx1) [2] = biological target: T2, glutaredoxin-1 (Grx1) (Mus musculus, UniProt Q9QUH0); assay: Grx1 activity in lysates of treated BV2 murine microglia; click-biotin/streptavidin pull-down with MS and western blot; assay type: cell-based
T2 construct: gene Glrx
T2 sequence (Q9QUH0 2-107): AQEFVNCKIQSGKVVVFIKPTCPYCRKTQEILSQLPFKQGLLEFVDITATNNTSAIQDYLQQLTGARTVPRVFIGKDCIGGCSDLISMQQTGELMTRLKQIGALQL

| IC50 (glutaredoxin-1 (Grx1) [1]) | IC50 (glutaredoxin-1 (Grx1) [2]) | Compound | pKa (Cys22) |
| --- | --- | --- | --- |
|  |  | Glutaredoxin-1 (Grx1, thioltransferase) (Homo sapiens (inferred; species of the isolated enzyme not stated explicitly)) | 3.5 |
| 32 µM | 37 µM | C#CCOc1cc(C(=O)NCc2ccc(NC(=O)CCl)cc2)cc(C(=O)OC)c1 [J02, methyl 3-((4-(2-chloroacetamido)benzyl)carbamoyl)-5-(prop-2-yn-1-yloxy) benzoate] |  |
